US20100184815A1 (priority 2008, published 2010)
Like-named read-outs stand apart in the source and are kept apart here.

Key:
pig liver esterase = assay: Metabolism studies using pig liver esterase; type: in vitro ADME; conditions: 37° C.
Method: The esterase-mediated metabolism of these compounds was studied using commercially available pig liver esterase in the presence and absence of human plasma proteins. The disappearance of parent was monitored over the time course of the incubations using a LC-UV detection system.
A stock solution and working stock solution was prepared for each proprietary compound as described for the human liver microsomal incubations. Working solutions of pig liver esterase in potassium phosphate buffer ([…], pH 7.4) and pig liver esterase in human plasma protein were prepared by dissolving pig liver esterase (2.51 mg) in the phosphate buffer or plasma protein solutions, respectively.
A set of three Eppendorf microfuge tubes (1.5 mL) was appropriately labeled. To each tube was added 1.5 mL of phosphate buffer, pig liver esterase in buffer, or pig liver esterase in human plasma protein solution. These solutions were pre-incubated (37° C., 900 rpm) and the reactions were initiated by adding an aliquot (37.5 μL) of the working solution of proprietary compound to each tube. An aliquot (100 μL) from each tube was removed at time 0, 5, 30, 60, and 120 min and added to a tube containing acetonitrile (200 μL) to stop the reaction.
The samples were centrifuged at 14000 g for 15 minutes at 4° C. The supernatant was transferred to clean labeled HPLC injection vials and stored at −80° C. until analyzed. An aliquot of the supernatant (25 μL) was injected onto the LC-UV system for analysis.
Half lives of a sample of test articles is noted in the following table. Half life was determined in the presence or absence of plasma.

[1] = Metabolism studies using human liver microsomal preparations; type: in vitro ADME; conditions: for HLMs Predominant Enzyme: comparison of half life with and without NADPH: Esterase, CYP or Mixed; for half-life: pH 7.4, read-out: HLMs t1/2; for half-life / HLMs t1/2 (min): pooled human liver microsomes, with NADPH (CYP system active), 37° C.
Method: Compounds were incubated in pooled human liver microsomes (HLMs) in the presence or absence of an NADPH-generating system. NADPH is required for the activity of cytochrome P450 (CYP) and other oxidative enzymes present in HLMs, but not for esterase activity. An additional incubation was carried out in the absence of HLM to assess compound stability. The disappearance of parent and the appearance of the corresponding acid metabolite were monitored over the time course of the incubations using LC-MS/MS.
A stock solution (20 mM) of each proprietary compound in DMSO was prepared and store at −20° C. until needed. A working stock solution (0.2 mM) was prepared for each proprietary compound by adding an aliquot of the stock solution (10 μL) to acetonitrile (990 μL).
An aliquot of the HLM solution was removed from the −80° C. freezer and placed on ice. Tris Buffer (50 mM, pH 7.4) containing MgCl2 (hexahydrate, 5 mM) was pre-incubated in a 37° C. water bath. A set of Eppendorf microfuge tubes (1.5 mL) was appropriately labeled. To each tube was added Tris buffer with or without the NADPH generating system. An aliquot of pooled HLMs was added to all the incubations except those that were the buffer control.
Tubes were preincubated for 5 min in a shaking incubator bath (37° C., 900 rpm) and the reaction was initiated by adding an aliquot of the proprietary working solution (5 μL). The additions were timed carefully in order to coordinate the sample collections below. A small aliquot (50 μL) was removed at […] and delivered to the respective tubes containing dextrorphan (100 μL of 0.5 μg/mL solution) in dissolved in methanol or acetonitrile. The samples were centrifuged at 14000 g for 15 minutes at 4° C. The supernatant was transferred to clean labeled HPLC injection vials and stored at −80° C. until analyzed. An aliquot of the supernatant […] was added to water (75 μL), mixed and injected onto the LC-MS/MS system for analysis.
“HLM t1/2” represents the observed half life of the compound under conditions that included NADPH, i.e., the CYP system was active. Comparison to the half life of the test article under (−)NADPH conditions, the enzyme predominant ly responsible for the metabolism of the test article. […] Where roughly equal metabolism is seen by each enzyme system, “mixed” is noted in the “Predominant enzyme” column.

Gal-4 hPPARβ/δ = target: T1, Gal-4 hPPARβ/δ (Homo sapiens, UniProt Q03181); assay: Gal4-hPPARδ transient transfection reporter assay in Cos cells; type: cell-based; conditions: luciferase reporter, 24 hours with compound, scale 1-5, read-out: Gal-4 hPPAR β/δ EC50 (scaled number)
T1 construct: Plasmids pGal4-hPPARα, pGal4-hPPARγ, pGal4-hPPARδ and pG5-TK-pGL3 were constructed as previously described by Staels, Bart, et al., Nature 1998 Jun; 25
T1 sequence (Q03181 171-441 limits assumed): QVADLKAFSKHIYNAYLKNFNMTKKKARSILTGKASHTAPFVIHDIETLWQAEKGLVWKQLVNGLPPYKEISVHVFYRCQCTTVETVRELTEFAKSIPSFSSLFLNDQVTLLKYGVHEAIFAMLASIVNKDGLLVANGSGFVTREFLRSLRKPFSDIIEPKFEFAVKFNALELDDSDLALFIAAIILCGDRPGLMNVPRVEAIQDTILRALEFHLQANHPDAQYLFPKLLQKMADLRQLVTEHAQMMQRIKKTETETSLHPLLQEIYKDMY
Procedure, shortened: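 Cos cells transiently co-transfected with Gal4-hPPAR expression plasmid, pG5-TK-pGL3 luciferase reporter and β-galactosidase control, then treated 24 h with increasing compound concentrations in DMEM containing 0.2% FCS. Luciferase normalised to β-galactosidase; EC50 from curve fit, at least three experiments.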

[2] = pig liver esterase in human plasma protein solution, read-out: Pig Liver Esterase (t1/2 min.) (+) Plasma
[3] = pig liver esterase in phosphate buffer pH 7.4, no plasma, read-out: Pig Liver Esterase (t1/2 min.) (−) Plasma
[4] = pig liver esterase in human plasma protein solution

| Compound | half-life at 4.9 µM (pig liver esterase; [2]) [min] | half-life at 4.9 µM (pig liver esterase; [3]) [min] | HLMs Predominant Enzyme [1] | half-life [1] [min] | EC50 (Gal-4 hPPARβ/δ) [nM] | HLMs t1/2 (min) [1] | Pig Liver Esterase (t1/2 min.) (+) Plasma (pig liver esterase; [4]) |
| --- | --- | --- | --- | --- | --- | --- | --- |
| CC(C)(Sc1ccc(C(=O)OCCc2cn(Cc3ccc(C(F)(F)F)cc3)nn2)cc1)C(=O)O [Compound 91, 2-methyl-2-(4-((2-(1-(4-(trifluoromethyl)benzyl)-1H-1,2,3-triazol-4-yl)ethoxy)carbonyl)phenylthio)propanoic acid] | > 120 | 64 | Mixed | 55 | > 1000 |  |  |
| CCCCCCCn1c(COC(=O)c2ccc(SC(C)(C)C(=O)O)cc2)nn(Cc2ccc(C(C)(C)C)cc2)c1=O [Compound 189, 2-(4-(((1-(4-tert-butylbenzyl)-4-heptyl-5-oxo-4,5-dihydro-1H-1,2,4-triazol-3-yl)methoxy)carbonyl)phenylthio)-2-methylpropanoic acid] | 105 | < 5 | CYP | 90 | > 1000 |  |  |
| CCCc1nn(Cc2ccc(C(F)(F)F)cc2)cc1COC(=O)c1ccc(SC(C)(C)C(=O)O)cc1 [Compound 12, 2-methyl-2-(4-(((3-propyl-1-(4-(trifluoromethyl)benzyl)-1H-pyrazol-4-yl)methoxy)carbonyl)phenylthio)propanoic acid] | 61 | < 5 | Esterase | 60 | > 1000 |  |  |
| CCCCCCCn1c(COC(=O)c2ccc(OC(C)(C)C(=O)O)cc2)nn(Cc2ccc(C(C)(C)C)cc2)c1=O [Compound 190, 2-(4-(((1-(4-tert-butylbenzyl)-4-heptyl-5-oxo-4,5-dihydro-1H-1,2,4-triazol-3-yl)methoxy)carbonyl)phenoxy)-2-methylpropanoic acid] |  | 8 | CYP | 36 | > 1000 |  | Stable |
| CCCCCCn1c(COC(=O)c2ccc(SC(C)(C)C(=O)O)cc2)nn(Cc2ccc(C(C)(C)C)cc2)c1=O [Compound 187, 2-(4-(((1-(4-tert-butylbenzyl)-4-hexyl-5-oxo-4,5-dihydro-1H-1,2,4-triazol-3-yl)methoxy)carbonyl)phenylthio)-2-methylpropanoic acid] | 64 | 26 | Mixed | 38 | > 1000 |  |  |
| CCCCCCCCn1c(COC(=O)c2ccc(SC(C)(C)C(=O)O)cc2)nn(Cc2ccc(C)cc2)c1=O [Compound 161, 2-methyl-2-(4-(((1-(4-methylbenzyl)-4-octyl-5-oxo-4,5-dihydro-1H-1,2,4-triazol-3-yl)methoxy)carbonyl)phenylthio)propanoic acid] | > 120 | < 5 | Esterase | 12 | 51 to 200 |  |  |
| CCCn1c(COC(=O)c2ccc(OC(C)(C)C(=O)O)cc2)nn(Cc2ccc(C(C)(C)C)cc2)c1=O [Compound 150, 2-(4-(((1-(4-tert-butylbenzyl)-5-oxo-4-propyl-4,5-dihydro-1H-1,2,4-triazol-3-yl)methoxy)carbonyl)phenoxy)-2-methylpropanoic acid] |  | 31 |  |  | > 1000 | Stable | Stable |

Now from value to molecule:

| half-life at 4.9 µM (pig liver esterase; [2]) [min] | half-life at 4.9 µM (pig liver esterase; [3]) [min] | HLMs Predominant Enzyme [1] | half-life [1] [min] | EC50 (Gal-4 hPPARβ/δ) [nM] | HLMs t1/2 (min) [1] | Pig Liver Esterase (t1/2 min.) (+) Plasma (pig liver esterase; [4]) | Compound |
| --- | --- | --- | --- | --- | --- | --- | --- |
| > 120 | < 5 |  |  | > 1000 | Stable |  | CCCCCCn1c(COC(=O)c2ccc(SC(C)(C)C(=O)O)cc2)nn(Cc2ccc(C)cc2)c1=O [Compound 160, 2-(4-(((4-hexyl-1-(4-methylbenzyl)-5-oxo-4,5-dihydro-1H-1,2,4-triazol-3-yl)methoxy)carbonyl)phenylthio)-2-methylpropanoic acid] |
| 89 | 31 | Esterase | 90 | > 1000 |  |  | Cc1ccc(Cn2cc(COC(=O)c3ccc(SC(C)(C)C(=O)O)cc3)nn2)cc1 [Compound 60, 2-methyl-2-(4-(((1-(4-methylbenzyl)-1H-1,2,3-triazol-4-yl)methoxy)carbonyl)phenylthio)propanoic acid] |
| 83 | 19 | Esterase | 128 | > 1000 |  |  | Cc1ccc(Cn2cc([C@@H](C)OC(=O)c3ccc(SC(C)(C)C(=O)O)cc3)nn2)cc1 [Compound 87, (R)-2-methyl-2-(4-((1-(1-(4-methylbenzyl)-1H-1,2,3-triazol-4-yl)ethoxy)carbonyl)phenylthio)propanoic acid] |
|  | 27 | Mixed | 33 | > 1000 |  | Stable | CCCCCCCn1c(COC(=O)c2ccc(OC(C)(C)C(=O)O)cc2)nn(Cc2ccc(C)cc2)c1=O [Compound 192, 2-(4-(((4-heptyl-1-(4-methylbenzyl)-5-oxo-4,5-dihydro-1H-1,2,4-triazol-3-yl)methoxy)carbonyl)phenoxy)-2-methylpropanoic acid] |
|  | 31 | Stable |  | > 1000 | Stable | Stable | CCCCCCn1c(COC(=O)c2ccc(OC(C)(C)C(=O)O)cc2)nn(Cc2ccc(C)cc2)c1=O [Compound 151, 2-(4-(((4-hexyl-1-(4-methylbenzyl)-5-oxo-4,5-dihydro-1H-1,2,4-triazol-3-yl)methoxy)carbonyl)phenoxy)-2-methylpropanoic acid] |
| 160 | 29 | Esterase | 25 | > 1000 |  |  | COC(c1ccc(Cn2cc(COC(=O)c3ccc(SC(C)(C)C(=O)O)cc3)nn2)cc1)(C(F)(F)F)C(F)(F)F [Compound 75, 2-(4-(((1-(4-(1,1,1,3,3,3-hexafluoro-2-methoxypropan-2-yl)benzyl)-1H-1,2,3-triazol-4-yl)methoxy)carbonyl)phenylthio)-2-methylpropanoic acid] |
|  | 30 | Esterase | 180 | > 1000 |  | Stable | CCCCCCCCn1c(COC(=O)c2ccc(OC(C)(C)C(=O)O)cc2)nn(Cc2ccc(C)cc2)c1=O [Compound 152, 2-methyl-2-(4-(((1-(4-methylbenzyl)-4-octyl-5-oxo-4,5-dihydro-1H-1,2,4-triazol-3-yl)methoxy)carbonyl)phenoxy)propanoic acid] |
